We go through 32 compounds from patent US20090155209A1, “NOVEL MACROCYCLIC INHIBITORS OF HEPATITIS C VIRUS REPLICATION” (priority 2007, published 2009).

As usually defined, the IC50 is the concentration at which inhibition is half-maximal. Read a high IC50 as lower potency. What is called EC50 is the concentration giving half of the maximal effect. A low value points to higher potency in that assay.

Where only a bound is given, the exact number is not on record here.

Assay [1] concerns the target T1, NS3-NS4 (Hepatitis C virus genotype 1a, UniProt P27958). Kind of assay: NS3-NS4 activity, IC50 (Example 37, Table 8). It is filed as biochemical.
In assay [2] the target is T1, NS3-NS4. Nature of the assay: cell-based. The settings on record: EC50, NS3-NS4 activity.

T1 sequence (P27958 1027-1657): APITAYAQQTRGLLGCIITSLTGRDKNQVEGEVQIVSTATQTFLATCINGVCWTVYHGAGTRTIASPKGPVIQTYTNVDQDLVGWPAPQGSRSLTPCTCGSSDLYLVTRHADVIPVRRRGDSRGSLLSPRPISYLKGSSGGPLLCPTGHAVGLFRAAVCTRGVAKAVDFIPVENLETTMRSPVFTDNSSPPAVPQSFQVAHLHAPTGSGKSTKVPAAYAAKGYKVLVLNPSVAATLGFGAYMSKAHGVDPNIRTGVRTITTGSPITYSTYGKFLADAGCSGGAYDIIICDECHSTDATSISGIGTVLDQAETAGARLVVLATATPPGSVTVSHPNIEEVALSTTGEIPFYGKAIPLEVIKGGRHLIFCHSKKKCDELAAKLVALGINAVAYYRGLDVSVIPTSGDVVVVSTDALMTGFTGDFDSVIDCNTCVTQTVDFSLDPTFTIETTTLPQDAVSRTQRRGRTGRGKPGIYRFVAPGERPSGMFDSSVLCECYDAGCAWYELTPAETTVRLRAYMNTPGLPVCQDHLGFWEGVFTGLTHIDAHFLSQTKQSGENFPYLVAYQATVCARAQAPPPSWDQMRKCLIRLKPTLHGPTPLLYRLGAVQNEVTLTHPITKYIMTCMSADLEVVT
T1 sequence (P27958 1658-1711): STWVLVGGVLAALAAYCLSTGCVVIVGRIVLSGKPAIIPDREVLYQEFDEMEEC

At NS3-NS4 [1], `CCC1(S(=O)(=O)NC(=O)[C@@]23C[C@H]2CCCCCCC[C@H](NC(=O)OC(C)(C)C)C(=O)N2C[C@H](OC(=O)N4Cc5cccc(F)c5C4)C[C@H]2C(=O)N3)CC1` [Compound 650] returned an IC50 of under 0.1 µM. The 50% effective concentration (EC50) at NS3-NS4 [2] was under 0.1 µM.
As to `CN(C(=O)N[C@H]1CCCCC/C=C\[C@@H]2C[C@@]2(C(=O)NS(=O)(=O)c2c(Cl)cccc2Cl)NC(=O)[C@@H]2C[C@@H](OC(=O)N3Cc4cccc(F)c4C3)CN2C1=O)C(C)(C)C` [Compound 360], at NS3-NS4 [1], the IC50 was under 0.1 µM. Also, on NS3-NS4 [2], the concentration giving a half-maximal response (EC50) lay in the range of 0.1 to 1 µM.
`CC(C)(C)OC(=O)N[C@H]1CCCCC/C=C\[C@@H]2C[C@@]2(C(=O)NS(=O)(=O)c2cc(Cl)c(Cl)s2)NC(=O)[C@@H]2C[C@@H](OC(=O)N3Cc4cccc(F)c4C3)CN2C1=O` [Compound 354]: the half-inhibitory concentration (IC50) against NS3-NS4 [1] is under 0.1 µM. For the same compound, on NS3-NS4 [2], the EC50 was in the range of 0.1 to 1 µM.
On NS3-NS4 [1], `O=C(N[C@H]1CCCCC/C=C\[C@@H]2C[C@@]2(C(=O)NS(=O)(=O)c2ccc(Cl)cc2)NC(=O)[C@@H]2C[C@@H](OC(=O)N3Cc4cccc(Cl)c4C3)CN2C1=O)OC1CCOCC1` [Compound 335] came in with an IC50 of under 0.1 µM. This compound gave an EC50 at NS3-NS4 [2] of 0.1 to 1 µM.
For `Cc1ccccc1S(=O)(=O)NC(=O)[C@@]12C[C@H]1/C=C\CCCCC[C@H](NC(=O)OC1CCC1)C(=O)N1C[C@H](OC(=O)N3Cc4cccc(F)c4C3)C[C@H]1C(=O)N2` [Compound 338], the IC50 at NS3-NS4 [1] is under 0.1 µM. The compound also yielded an EC50 at NS3-NS4 [2] of under 0.1 µM.
`O=C1N[C@]2(C(=O)NS(=O)(=O)C3CC3)C[C@H]2/C=C\CCC(F)(F)CC[C@H](NC(=O)C2(C(F)(F)F)CC2)C(=O)N2C[C@H](OC(=O)N3Cc4ccccc4C3)C[C@@H]12` [Compound 409] had an IC50 at NS3-NS4 [1] of under 0.1 µM. Moreover, on NS3-NS4 [2], the EC50 is under 0.1 µM.
As to `CC(C)(C)OC(=O)N[C@H]1CCCCC/C=C\[C@@H]2C[C@@]2(C(=O)NS(=O)(=O)c2cccnc2Cl)NC(=O)[C@@H]2C[C@@H](OC(=O)N3Cc4cccc(F)c4C3)CN2C1=O` [Compound 529], the IC50 on NS3-NS4 [1] was under 0.1 µM. Besides, the EC50 at NS3-NS4 [2] was under 0.1 µM.
In the case of `CC(C)(C)OC(=O)N[C@H]1CCCCC/C=C\[C@@H]2C[C@@]2(C(=O)NS(=O)(=O)Cc2cc(Cl)ccc2Cl)NC(=O)[C@@H]2C[C@@H](OC(=O)N3Cc4cccc(F)c4C3)CN2C1=O` [Compound 525], at NS3-NS4 [1], the IC50 is under 0.1 µM. The EC50 at NS3-NS4 [2] is 0.1 to 1 µM.
The matching figures for `O=C(N[C@H]1CCCCC/C=C\[C@@H]2C[C@@]2(C(=O)NS(=O)(=O)C2CC2)NC(=O)[C@@H]2C[C@@H](OC(=O)N3Cc4cccc(F)c4C3)CN2C1=O)OCC1CCC1` [Compound 430]: under 0.1 µM and under 0.1 µM.
`Cc1ccc(S(=O)(=O)NC(=O)[C@@]23C[C@H]2/C=C\CCCCC[C@H](NC(=O)OC(C)(C)C)C(=O)N2C[C@H](OC(=O)N4Cc5cccc(F)c5C4)C[C@H]2C(=O)N3)c(C)c1` [Compound 355]: the IC50 against NS3-NS4 [1] is under 0.1 µM. Besides, the EC50 at NS3-NS4 [2] is under 0.1 µM.
In the case of `CN(C(=O)N[C@H]1CCCCC/C=C\[C@@H]2C[C@@]2(C(=O)NS(=O)(=O)C2CC2)NC(=O)[C@@H]2C[C@@H](OC(=O)N3Cc4cccc(F)c4C3)CN2C1=O)C1CCCC1` [Compound 425], on NS3-NS4 [1], the IC50 was under 0.1 µM. This compound yielded an EC50 at NS3-NS4 [2] of under 0.1 µM.
In the case of `Cc1ccc(C)c(ONC(=O)[C@@]23C[C@H]2CCCCCCC[C@H](NC(=O)OC(C)(C)C)C(=O)N2C[C@H](OC(=O)N4Cc5cccc(F)c5C4)C[C@H]2C(=O)N3)c1` [Compound 806], the IC50 at NS3-NS4 [1] is under 0.1 µM. Moreover, the half-maximal effective concentration (EC50) on NS3-NS4 [2] was in the range of 1 to 10 µM.
At NS3-NS4 [1], `CN(C(=O)N[C@H]1CCCCC/C=C\[C@@H]2C[C@@]2(C(=O)NS(=O)(=O)C2CC2)NC(=O)[C@@H]2C[C@@H](OC(=O)N3Cc4cccc(F)c4C3)CN2C1=O)C(C)(C)C` [Compound 407, (2R,6S,13aS,14aR,16aS,Z)-6-(3-tert-butyl-3-methylureido)-14a-(cyclopropylsulfonylcarbamoyl)-5,16-dioxo-1,2,3,5,6,7,8,9,10,11,13a,14,14a,15,16,16a-hexadecahydrocyclopropa[e]pyrrolo[1,2-a][1,4]diazacyclopentadecin-2-yl 4-fluoroisoindoline-2-carboxylate] displayed an IC50 of under 0.1 µM. The same compound had an EC50 at NS3-NS4 [2] of under 0.1 µM.
For the compound `Cc1ccc(CS(=O)(=O)NC(=O)[C@@]23C[C@H]2/C=C\CCCCC[C@H](NC(=O)OC(C)(C)C)C(=O)N2C[C@H](OC(=O)N4Cc5cccc(F)c5C4)C[C@H]2C(=O)N3)cc1` [Compound 515], on NS3-NS4 [1], the IC50 was under 0.1 µM. On NS3-NS4 [2], the EC50 is under 0.1 µM.
Turning to `CC(C)(C)OC(=O)N[C@H]1CCCCC/C=C\[C@@H]2C[C@@]2(C(=O)NS(=O)(=O)Cc2ccc(Cl)cc2)NC(=O)[C@@H]2C[C@@H](OC(=O)N3Cc4cccc(F)c4C3)CN2C1=O` [Compound 512], the IC50 against NS3-NS4 [1] was under 0.1 µM. The compound further showed an EC50 at NS3-NS4 [2] of under 0.1 µM.
For `O=C1N[C@]2(C(=O)NS(=O)(=O)C3CC3)C[C@H]2/C=C\CCCCC[C@H](Nc2nc(-c3ccc(F)cc3)cs2)C(=O)N2C[C@H](OC(=O)N3Cc4cccc(F)c4C3)C[C@@H]12` [Compound 208], the IC50 against NS3-NS4 [1] was under 0.1 µM. Further, the EC50 on NS3-NS4 [2] was under 0.1 µM.
For the compound `CC(C)(C)OC(=O)N[C@H]1CCCCC/C=C\[C@@H]2C[C@@]2(C(=O)NS(=O)(=O)Cc2cc(F)cc(F)c2)NC(=O)[C@@H]2C[C@@H](OC(=O)N3Cc4cccc(F)c4C3)CN2C1=O` [Compound 523], the IC50 against NS3-NS4 [1] is under 0.1 µM. The compound further yielded an EC50 at NS3-NS4 [2] of 0.1 to 1 µM.
The matching figures for `Cc1ccc(S(=O)(=O)NC(=O)[C@@]23C[C@H]2/C=C\CCCCC[C@H](NC(=O)OC(C)(C)C)C(=O)N2C[C@H](OC(=O)N4Cc5cccc(F)c5C4)C[C@H]2C(=O)N3)cc1F` [Compound 301, (2R,6S,13aS,14aR,16aS,Z)-6-(tert-butoxycarbonylamino)-14a-(3-fluoro-4-methylphenylsulfonylcarbamoyl)-5,16-dioxo-1,2,3,5,6,7,8,9,10,11,13a,14,14a,15,16,16a-hexadecahydrocyclopropa[e]pyrrolo[1,2-a][1,4]diazacyclopentadecin-2-yl 4-fluoroisoindoline-2-carboxylate]: under 0.1 µM and under 0.1 µM.
The corresponding values for `CN(C(=O)N[C@H]1CCCCC/C=C\[C@@H]2C[C@@]2(C(=O)NS(=O)(=O)C2(C)CC2)NC(=O)[C@@H]2C[C@@H](OC(=O)N3Cc4cccc(Cl)c4C3)CN2C1=O)C(C)(C)C` [Compound 441] are under 0.1 µM and under 0.1 µM.
On NS3-NS4 [1], `CC(C)(C)OC(=O)N[C@H]1CCCCC/C=C\[C@@H]2C[C@@]2(C(=O)NS(=O)(=O)c2cc(Cl)sc2Cl)NC(=O)[C@@H]2C[C@@H](OC(=O)N3Cc4ccccc4C3)CN2C1=O` [Compound 319] had an IC50 of under 0.1 µM. The EC50 on NS3-NS4 [2] was under 0.1 µM.
At NS3-NS4 [1], `CC(C)COC(=O)N[C@H]1CCCCC/C=C\[C@@H]2C[C@@]2(C(=O)NS(=O)(=O)c2ccc(Cl)cc2)NC(=O)[C@@H]2C[C@@H](OC(=O)N3Cc4cccc(F)c4C3)CN2C1=O` [Compound 341] had an IC50 of under 0.1 µM. On NS3-NS4 [2], this compound had an EC50 of under 0.1 µM.
As for `Cc1cccc(ONC(=O)[C@@]23C[C@H]2/C=C\CCCCC[C@H](NC(=O)OC(C)(C)C)C(=O)N2C[C@H](OC(=O)N4Cc5cccc(F)c5C4)C[C@H]2C(=O)N3)c1C` [Compound 712], the IC50 against NS3-NS4 [1] is under 0.1 µM. Moreover, the EC50 at NS3-NS4 [2] was in the range of 1 to 10 µM.
Regarding `Cc1ccc(C)c(CS(=O)(=O)NC(=O)[C@@]23C[C@H]2CCCCCCC[C@H](NC(=O)OC(C)(C)C)C(=O)N2C[C@H](OC(=O)N4Cc5cccc(F)c5C4)C[C@H]2C(=O)N3)c1` [Compound 629], the IC50 at NS3-NS4 [1] was under 0.1 µM. At NS3-NS4 [2], this compound returned an EC50 of under 0.1 µM.
On to `CC(=O)O[C@@H]1C[C@H]2C(=O)N[C@]3(C(=O)NS(=O)(=O)C4CC4)C[C@H]3/C=C\CCCCC[C@H](Nc3nc(-c4ccc(F)cc4)c(C)s3)C(=O)N2C1` [Compound 239], for which the IC50 at NS3-NS4 [1] was under 0.1 µM. Further, the EC50 on NS3-NS4 [2] was 0.1 to 1 µM.
At NS3-NS4 [1], `O=C1N[C@]2(C(=O)NS(=O)(=O)C3CC3)C[C@H]2/C=C\CCCCC[C@H](NC(=O)N2Cc3ccccc3C2)C(=O)N2C[C@H](OC(=O)N3Cc4cccc(F)c4C3)C[C@@H]12` [Compound 422] had an IC50 of under 0.1 µM. Further, the EC50 at NS3-NS4 [2] fell in the range of 0.1 to 1 µM.
On NS3-NS4 [1], `CC(C)(C)COC(=O)N[C@H]1CCCCC/C=C\[C@@H]2C[C@@]2(C(=O)NS(=O)(=O)C2CC2)NC(=O)[C@@H]2C[C@@H](OC(=O)N3Cc4cccc(F)c4C3)CN2C1=O` [Compound 406, (2R,6S,13aS,14aR,16aS,Z)-14a-(cyclopropylsulfonylcarbamoyl)-6-(neopentyloxycarbonylamino)-5,16-dioxo-1,2,3,5,6,7,8,9,10,11,13a,14,14a,15,16,16a-hexadecahydrocyclopropa[e]pyrrolo[1,2-a][1,4]diazacyclopentadecin-2-yl 4-fluoroisoindoline-2-carboxylate] displayed an IC50 of under 0.1 µM. This compound registered an EC50 on NS3-NS4 [2] of under 0.1 µM.
As to `CCC(C)(C)OC(=O)N[C@H]1CCCCC/C=C\[C@@H]2C[C@@]2(C(=O)NS(=O)(=O)c2ccc(Cl)cc2)NC(=O)[C@@H]2C[C@@H](OC(=O)N3Cc4cccc(F)c4C3)CN2C1=O` [Compound 336], the IC50 on NS3-NS4 [1] is under 0.1 µM. This compound also displayed an EC50 at NS3-NS4 [2] of under 0.1 µM.
Consider `Cc1cc(C)cc(ONC(=O)[C@@]23C[C@H]2/C=C\CCCCC[C@H](NC(=O)OC(C)(C)C)C(=O)N2C[C@H](OC(=O)N4Cc5cccc(F)c5C4)C[C@H]2C(=O)N3)c1` [Compound 715], for which the IC50 at NS3-NS4 [1] is under 0.1 µM. The compound also yielded an EC50 on NS3-NS4 [2] of 1 to 10 µM.
For `CC(C)CS(=O)(=O)NC(=O)[C@@]12C[C@H]1CCCCCCC[C@H](NC(=O)OC(C)(C)C)C(=O)N1C[C@H](OC(=O)N3Cc4cccc(F)c4C3)C[C@H]1C(=O)N2` [Compound 656], the IC50 against NS3-NS4 [1] is under 0.1 µM. The EC50 on NS3-NS4 [2] is under 0.1 µM.
`O=C(N[C@H]1CCCCC/C=C\[C@@H]2C[C@@]2(C(=O)NS(=O)(=O)C2CC2)NC(=O)[C@@H]2C[C@@H](OC(=O)N3Cc4cccc(F)c4C3)CN2C1=O)OC1CCOC1` (stereo partly shown) [Compound 412] showed an IC50 on NS3-NS4 [1] of under 0.1 µM. Also, the EC50 on NS3-NS4 [2] is under 0.1 µM.
In the case of `CC1(COC(=O)N[C@H]2CCCCC/C=C\[C@@H]3C[C@@]3(C(=O)NS(=O)(=O)C3CC3)NC(=O)[C@@H]3C[C@@H](OC(=O)N4Cc5cccc(F)c5C4)CN3C2=O)CC1` [Compound 435], the IC50 on NS3-NS4 [1] was under 0.1 µM. At NS3-NS4 [2], this compound displayed an EC50 of under 0.1 µM.
In turn, `CC(C)(C)OC(=O)N[C@H]1CCCCC/C=C\[C@@H]2C[C@@]2(C(=O)NS(=O)(=O)Cc2cccc(Cl)c2)NC(=O)[C@@H]2C[C@@H](OC(=O)N3Cc4cccc(F)c4C3)CN2C1=O` [Compound 511] yielded an IC50 against NS3-NS4 [1] of under 0.1 µM. The EC50 on NS3-NS4 [2] was under 0.1 µM.
